US7638554B2, “Flavanoids as chemotherapeutic, chemopreventive, and antiangiogenic agents” (SRI International, priority 2002, dated 2009)
Read-outs that look alike come from different tables or passages of the source.

Tests used:
[1] = system: MDA-MB-231 (ER−) breast cancer cell line; test: Growth inhibition assay, MTT, MDA-MB-231 breast cancer cells; format: cell-based, human; conditions: Homo sapiens, MDA-MB-231, 192 h, eight days, average of at least two experiments
Method: (§1) Compounds of the invention were tested for their ability to inhibit growth in two breast cancer cell lines, MCF-7 (ER+) and MDA-MB-231 (ER−).
(§2) The growth inhibition assays were conducted using routine methods. Briefly, the cells were seeded in 24-well plates at a density of 2000 cells per well in 200 μL of […] growth medium. To each well was added 10 μL of DMSO containing the dissolved test compound; final DMSO concentration in each well was not more than 0.5%. Each test compound was assayed at concentrations of 0.4, 2, 10, and 50 μM. The plates were incubated for eight days, with the media and test solutions replaced every third day. On Day 8, the viable cells were measured by the MTT assay, as described in Mosmann et al. (1983), “Rapid Colorimetric Assay for Cellular Growth and Survival: Application to Proliferation and Cytotoxicity,” J. Immunol. Method. 65:55-63. The optical density at 575 nm of each test well was measured and compared to that for control wells, and the data used to calculate the percentage of growth inhibition at different concentrations. The IC50 value (the concentration of growth inhibitor that results in 50% growth inhibition of the cells in culture relative to control cells not exposed to any growth inhibitor) was determined by plotting dose-response curves.
(§3) The calculated IC50 values are set forth in Table 1, with the results representing the average of at least two experiments conducted for each compound at each of the four concentrations.

[2] = system: MCF-10CA1a breast cancer cells; test: Boyden-chamber Matrigel invasion/migration assay, MCF-10CA1a; format: cell-based, human
Method: Cell Culture. MCF-10CA1a cells were cultured in Dulbecco's Modified Eagle Medium (DMEM) supplemented with 5% bovine serum, 2 mM glutamine and 1 mM non-essential amino acids. MDA-MB231 cells were grown in DMEM supplemented with 5% bovine serum. Cells were routinely maintained in a 5% CO2 incubator at 37° C.
General Procedure for Invasion Assay. MCF 10-CA1a or MDA-MB-231 breast cancer cells were treated with 1 or 5 μM of the compound being tested for 8 h. Cells were removed by trypsinizing and tested for their invasiveness by Boyden-chamber invasion assay. In the in vitro invasion/migration assays, a standard Matrigel-based assay, according to the manufacturer's (Becton-Dickinson) protocol, was used. Rehydrated Matrigel and control inserts were added to Falcon TC companion plates containing human fibronectin (30 μg/ml) as chemoattractant. Cellular suspensions (2×10^4 cells/0.5 ml) were added to individual wells of 24-well chambers (containing either control or Matrigel inserts), and the plates incubated (37° C., 5% CO2) in the presence of the compound being tested or vehicle for an additional 16-18 h. Non-invading or non-migrating cells were removed by scraping the top surfaces of the Matrigel and control inserts, respectively. The invading (or migrating) cells (on the bottom surface) were fixed (3.7% formaldehyde) and stained with Accustain (Sigma). The percent invasion was calculated as mean number of invading cells/the mean number of cells migrating through a control membrane×100.
The in vitro invasion through Matrigel was studied for two human breast cancer lines: MCF-10CA1a, a highly metastatic ER^+ line and MDA-MB-231, an ER^− line. […] At this concentration, SR13179 inhibited invasion of MDA-MB-231 by about 30% (and by 70% at 5 μM). To rule out a cytotoxic effect in the inhibition of invasion, a concurrent cytotoxicity assay was carried out and the number of viable cells was determined by MTT assay. There was less than 5% decrease in MDA-MB-231 cell viability at 5 μM concentration of SR13179 at 22 h. […]

TIMP-2 = test: Western blotting of TIMP-2 protein expression, MCF-10-CA1a cells; format: cell-based, human
Text: Western Blotting. Proteins were separated by gel electrophoresis using 4-12% pre-cast SDS-polyacrylamide gels (Invitrogen, Carlsbad, Calif.) and then electrophoretically transferred onto Hybond™-P membrane (Amersham Biosciences, Piscataway, N.J.). Blots were probed with specific antibodies (Santa Cruz Biotechnology, Inc). The ECL Plus Western Blotting Detection System of Amersham Biosciences (Piscataway, N.J.) and the procedure recommended by the manufacturer was used for the detection of antigens. Protein bands were quantified by analyzing the images obtained using an Alphaimager™ S-3400 (Alpha Innotech Corp., San Leandro, Calif.).
The effects of SR 13179 on the protein expression of TIMP-1, TIMP-2, and membrane-type 1 MMP (MT1-MMP) were studied. SR13179 induced the protein expression of TIMP-2 in a dose- and time-dependent manner. MCF-10-CA1a cells were treated with SR 13179 at 1, 3, or 5 μM concentrations for 48 h, or, alternatively, with […] SR 13179 for 8, 24, or 48 h. Cells were lysed and subjected to Western blotting.

[3] = system: ovarian cancer cell line OVCAR-5; test: Growth inhibition, sulforhodamine-based protein determination, OVCAR-5; format: cell-based; conditions: Homo sapiens, OVCAR-5, 144 h; continuous exposure six days
Method: (§4) The novel compound SR 13179 was assayed for its ability to inhibit growth in several cancer cell lines. The cell lines studied included breast cancer cell line MCF-7 (ER+); prostate cancer cell lines LNCaP, PC3, and DU145; lung cancer cell line A427; ovarian cancer cell lines IGROV1, OVCAR-3, OVCAR-4, OVCAR-5, OVCAR-8, and SK-OV-3; and colon cancer cell lines COLO 205, HCC-2998, HCT-116, HCT-15, HT29, KM12, AND SW-620.
(§5) The growth assays for the breast cancer cell lines were conducted according to the method of Example 16. For the other cell lines, each assay was conducted with continuous exposure to the test compound at four log concentrations for six days, using a sulforhodamine-based protein determination to measure growth inhibition.

[4] = system: colon cancer cell line SW-620; test: Growth inhibition, sulforhodamine-based protein determination, SW-620; format: cell-based; conditions: Homo sapiens, SW-620, 144 h; continuous exposure six days
Method: as §4, §5

[5] = system: MCF-7 (ER+) breast cancer cell line; test: Growth inhibition assay, MTT, MCF-7 breast cancer cells; format: cell-based, human; conditions: Homo sapiens
Method: as §1, §2, §3

[6] = system: colon cancer cell line COLO 205; test: Growth inhibition, sulforhodamine-based protein determination, COLO 205; format: cell-based; conditions: Homo sapiens, COLO 205, 144 h; continuous exposure six days
Method: as §4, §5

COc1cc(C2CC(O)c3ccc4ccccc4c3O2)cc(OC)c1OC (stereo not drawn) [SR 13179, 2-(3,4,5-trimethoxyphenyl)-3,4-dihydro-2H-benzo[h]chromen-4-ol]
IC50 [1]: 3010 nM | Invasion ([2]; 1 μM): 10 % of Control | Migration ([2]; 1 μM): 70 % of Control | inhibition at 1 µM ([2]; Homo sapiens, read-out: inhibition of invasion through Matrigel): 90% | Level of TIMP-2 Protein (TIMP-2; 1 μM, 48 h): 6.8 | Level of TIMP-2 Protein (TIMP-2; 3 μM, 48 h): 14.6 | Level of TIMP-2 Protein (TIMP-2; 5 μM, 48 h): 16.2 | Level of TIMP-2 Protein (TIMP-2; 8 h, 5 mM SR 13179): 7.9 | Level of TIMP-2 Protein (TIMP-2; 24 h, 5 mM SR 13179): 14.5 | Level of TIMP-2 Protein (TIMP-2; 48 h, 5 mM SR 13179): 15.9 | IC50 [3]: 1360 nM | IC50 [4]: 281 nM | IC50 ([5]; MCF7, 192 h, MTT assay, eight days, average of at least two experiments, read-out: GROWTH INHIBITION (IC50) MCF-7 (ER+)): 1410 nM | IC50 ([5]; MCF7, Table 2, method of Example 16, read-out: IC50, growth inhibition, MCF-7 (ER+)): 1140 nM | IC50 [6]: 266 nM
